Data from US8349880B2, “Bicyclic compounds for the reduction of beta-amyloid production” (Bristol-Myers Squibb Company, priority 2009, dated 2013).

Tested on: Aβ1-42 production
Experiment: Cellular assay for inhibition of Aβ1-42 production (H4 APP751 SWE clone 8.20)
Type: cell-based
Details: 19 h, H4 APP751 SWE clone 8.20 cells, 19 h incubation; read-out: Activity Rating (Aβ42 cellular IC50, given as a number)
Outline: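 H4 cells stably expressing APP751 with the Swedish mutation (1.5×10^4 cells/well) incubated with compound for 19 h at 37° C in DMEM with 0.0125% BSA. Secreted Aβ42 measured overnight at 4° C by HTRF-type pairing of 565 (Aβ42 neoepitope) and 26D6 (N-terminal) antibodies. IC50 from curve fit.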

Row | IC50 [nM] | SMILES
1 | 16 | Cc1ncn(-c2ccc(Nc3nc4n(n3)CCC3(CC4c4ccc(F)cc4)OCCO3)cc2F)n1 (stereo not shown) [Example 158, N-(3-fluoro-4-(3-methyl-1H-1,2,4-triazol-1-yl)phenyl)-9-(4-fluorophenyl)-5,6,8,9-tetrahydrospiro[[1,2,4]triazolo[1,5-a]azepine-7,2′-[1,3]dioxolan]-2-amine 2,2,2-trifluoroacetate]
2 | 140 | COc1cc(Nc2nc3c(s2)CCCC3(C)c2ccccc2)ccc1-n1cnc(Cl)c1 (stereo not shown) [Example 73, N-(4-(4-chloro-1H-imidazol-1-yl)-3-methoxyphenyl)-4-methyl-4-phenyl-4,5,6,7-tetrahydrobenzo[d]thiazol-2-amine 2,2,2-trifluoroacetate]
3 | 47 | COc1cc(Nc2nc3n(n2)CCCC[C@@H]3c2ccc(F)cc2)c(F)cc1-n1cnc(C)n1 (single isomer, unassigned) [Example 30]
4 | 110 | Cc1ncn(-c2ccc(Nc3nc4n(n3)CCCC4c3ccc(F)cc3)cc2C#N)n1 (stereo not shown) [Example 11, 5-(8-(4-fluorophenyl)-5,6,7,8-tetrahydro-[1,2,4]triazolo[1,5-a]pyridin-2-ylamino)-2-(3-methyl-1H-1,2,4-triazol-1-yl)benzonitrile, 2,2,2-trifluoroacetate]

Same assay, conditions: 19 h, H4 APP751 SWE clone 8.20 cells, 19 h incubation; read-out: Activity Rating (based on Aβ42 cellular IC50 values)

Row | IC50 [nM] | SMILES
5 | 10 to 100 | Cc1ncn(-c2ccc(Nc3nc4n(n3)CC[C@@](C)(O)C[C@@H]4c3ccc(F)cc3)cc2F)n1 (relative stereo) [Example 155, rel-(7S,9R)-2-(3-fluoro-4-(3-methyl-1H-1,2,4-triazol-1-yl)phenylamino)-9-(4-fluorophenyl)-7-methyl-6,7,8,9-tetrahydro-5H-[1,2,4]triazolo[1,5-a]azepin-7-ol 2,2,2-trifluoroacetate]
6 | 10 to 100 | COc1cc(Nc2nc3c(s2)CCCC3c2ccccc2)ccc1-n1cnc(Cl)c1 (stereo not shown) [Example 68, N-(4-(4-chloro-1H-imidazol-1-yl)-3-methoxyphenyl)-4-phenyl-4,5,6,7-tetrahydrobenzo[d]thiazol-2-amine]
7 | 10 to 100 | COc1cc(Nc2nc3n(n2)CCCC[C@H]3c2ccc(F)cc2)c(F)cc1-n1cnc(C)n1 [Example 29, (S)—N-(2-fluoro-5-methoxy-4-(3-methyl-1H-1,2,4-triazol-1-yl)phenyl)-9-(4-fluorophenyl)-6,7,8,9-tetrahydro-5H-[1,2,4]triazolo[1,5-a]azepin-2-amine]
8 | 10 to 100 | COc1cc(Nc2nc3n(n2)CCCCC3c2ccc(-n3cccn3)cc2)ccc1-n1cnc(Cl)c1 (stereo not shown) [Example 171, 9-(4-(1H-pyrazol-1-yl)phenyl)-N-(4-(4-chloro-1H-imidazol-1-yl)-3-methoxyphenyl)-6,7,8,9-tetrahydro-5H-[1,2,4]triazolo[1,5-a]azepin-2-amine 2,2,2-trifluoroacetate]
9 | 10 to 100 | COc1cc(Nc2nc3n(n2)CCC(N2CCCC2)CC3c2ccc(F)cc2)ccc1-n1cnc(Cl)c1 (stereo not shown) [Example 143, N-(4-(4-chloro-1H-imidazol-1-yl)-3-methoxyphenyl)-9-(4-fluorophenyl)-7-(pyrrolidin-1-yl)-6,7,8,9-tetrahydro-5H-[1,2,4]triazolo[1,5-a]azepin-2-amine]
10 | 10 to 100 | Cc1ncnn1-c1ccc(Nc2nc3n(n2)CCCC[C@@H]3c2ccc(OC(F)(F)F)cc2)cc1F (single isomer, unassigned) [Example 101]
11 | 10 to 100 | COc1cc(Nc2nc3n(n2)CC=CCC3c2ccc(F)cc2)ccc1-n1cnc(C)n1 (stereo not shown) [Example 4, (Z)-9-(4-fluorophenyl)-N-(3-methoxy-4-(3-methyl-1H-1,2,4-triazol-1-yl)phenyl)-8,9-dihydro-5H-[1,2,4]triazolo[1,5-a]azepin-2-amine]
12 | < 10 | COc1cc(Nc2nc3n(n2)CCCCC3c2ccc(F)cc2)cc(F)c1-n1cnc(Cl)c1 (stereo not shown) [Example 49, N-(4-(4-chloro-1H-imidazol-1-yl)-3-fluoro-5-methoxyphenyl)-9-(4-fluorophenyl)-6,7,8,9-tetrahydro-5H-[1,2,4]triazolo[1,5-a]azepin-2-amine]
13 | 10 to 100 | CO/N=C1/CCn2nc(Nc3ccc(-n4cnc(Cl)c4)c(OC)c3)nc2C(c2ccc(F)cc2)C1 (stereo not shown) [Example 138, (E)-2-(4-(4-chloro-1H-imidazol-1-yl)-3-methoxyphenylamino)-9-(4-fluorophenyl)-8,9-dihydro-5H-[1,2,4]triazolo[1,5-a]azepin-7(6H)-one O-methyl oxime 2,2,2-trifluoroacetate]
14 | < 10 | COc1cc(Nc2nc3n(n2)CCCC[C@@H]3c2ccc(Cl)cc2Cl)ccc1-n1cnc(Cl)c1 (single isomer, unassigned) [Example 21]
15 | 100 to 1000 | COc1cc(Nc2nc3n(n2)CCCCC3c2ccc(-n3ccnc3)cc2)ccc1-n1cnc(Cl)c1 (stereo not shown) [Example 173, 9-(4-(1H-imidazol-1-yl)phenyl)-N-(4-(4-chloro-1H-imidazol-1-yl)-3-methoxyphenyl)-6,7,8,9-tetrahydro-5H-[1,2,4]triazolo[1,5-a]azepin-2-amine 2,2,2-trifluoroacetate]
16 | 10 to 100 | COc1cc(Nc2nc3n(n2)CC=CCC3c2ccc(Cl)cc2Cl)ccc1-n1cnc(Cl)c1 (stereo not shown) [Example 8, (Z)—N-(4-(4-chloro-1H-imidazol-1-yl)-3-methoxyphenyl)-9-(2,4-dichlorophenyl)-8,9-dihydro-5H-[1,2,4]triazolo[1,5-a]azepin-2-amine]
17 | 10 to 100 | Cc1ncnn1-c1ccc(Nc2nc3n(n2)CCCCC3c2ccc(OCC(F)(F)F)cc2)cc1F (stereo not shown) [Example 110, N-(3-fluoro-4-(5-methyl-1H-1,2,4-triazol-1-yl)phenyl)-9-(4-(2,2,2-trifluoroethoxy)phenyl)-6,7,8,9-tetrahydro-5H-[1,2,4]triazolo[1,5-a]azepin-2-amine]
18 | 100 to 1000 | Cc1ncn(-c2ccc(Nc3nc4n(n3)CCC[C@H]4c3ccc(OC(F)(F)F)cc3)cc2F)n1 (single isomer, unassigned) [Example 123]
19 | < 10 | COc1cc(Nc2nc3n(n2)CCCCC3c2ccc(Cl)cc2)ccc1-n1cnc(Cl)c1 (stereo not shown) [Example 32, N-(4-(4-chloro-1H-imidazol-1-yl)-3-methoxyphenyl)-9-(4-chlorophenyl)-6,7,8,9-tetrahydro-5H-[1,2,4]triazolo[1,5-a]azepin-2-amine 2,2,2-trifluoroacetate]
20 | 10 to 100 | COc1cc(Nc2nc3n(n2)CCCCC3c2ccc(OC(F)(F)F)c(F)c2)ccc1-n1cnc(C)n1 (stereo not shown) [Example 128, 9-(3-fluoro-4-(trifluoromethoxy)phenyl)-N-(3-methoxy-4-(3-methyl-1H-1,2,4-triazol-1-yl)phenyl)-6,7,8,9-tetrahydro-5H-[1,2,4]triazolo[1,5-a]azepin-2-amine 2,2,2-trifluoroacetate]
21 | < 10 | COc1cc(Nc2nc3n(n2)CCC(OC)(OC)CC3c2ccc(F)cc2)ccc1-n1cnc(Cl)c1 (stereo not shown) [Example 145, N-(4-(4-chloro-1H-imidazol-1-yl)-3-methoxyphenyl)-9-(4-fluorophenyl)-7,7-dimethoxy-6,7,8,9-tetrahydro-5H-[1,2,4]triazolo[1,5-a]azepin-2-amine]
22 | 10 to 100 | COc1cc(Nc2nc3n(n2)CCCCC3c2ccc(F)cc2)ccc1-c1cnnc(C)c1 (stereo not shown) [Example 47, 9-(4-fluorophenyl)-N-(3-methoxy-4-(6-methylpyridazin-4-yl)phenyl)-6,7,8,9-tetrahydro-5H-[1,2,4]triazolo[1,5-a]azepin-2-amine]
23 | < 10 | COc1cc(Nc2nc3n(n2)CCCC[C@H]3c2ccc(OC(F)(F)F)cc2)c(F)cc1-n1cnc(C)n1 (single isomer, unassigned) [Example 176]
24 | 10 to 100 | Cc1ncnn1-c1ccc(Nc2nc3n(n2)CCCC3c2ccc(F)cc2)cc1F (stereo not shown) [Example 13, N-(3-fluoro-4-(5-methyl-1H-1,2,4-triazol-1-yl)phenyl)-8-(4-fluorophenyl)-5,6,7,8-tetrahydro-[1,2,4]triazolo[1,5-a]pyridin-2-amine]
25 | < 10 | COc1cc(Nc2nc3n(n2)CCCC[C@H]3c2cccc(F)c2)ccc1-n1cnc(Cl)c1 (single isomer, unassigned) [Example 45]
26 | 10 to 100 | COc1cc(Nc2nc3c(s2)CC(OC)(OC)CC3c2ccc(F)cc2)ccc1-n1cnc(Cl)c1 (stereo not shown) [Example 84, N-(4-(4-chloro-1H-imidazol-1-yl)-3-methoxyphenyl)-4-(4-fluorophenyl)-6,6-dimethoxy-4,5,6,7-tetrahydrobenzo[d]thiazol-2-amine]
27 | < 10 | COc1cc(Nc2nc3n(n2)CCCCC3c2ccc(F)cc2F)ccc1-n1cnc(Cl)c1 (stereo not shown) [Example 35, N-(4-(4-chloro-1H-imidazol-1-yl)-3-methoxyphenyl)-9-(2,4-difluorophenyl)-6,7,8,9-tetrahydro-5H-[1,2,4]triazolo[1,5-a]azepin-2-amine 2,2,2-trifluoroacetate]
28 | 10 to 100 | COc1cc(Nc2nc3n(n2)CCC(F)(F)CC3c2ccc(F)cc2)ccc1-n1cnc(Cl)c1 (stereo not shown) [Example 139, N-(4-(4-chloro-1H-imidazol-1-yl)-3-methoxyphenyl)-7,7-difluoro-9-(4-fluorophenyl)-6,7,8,9-tetrahydro-5H-[1,2,4]triazolo[1,5-a]azepin-2-amine 2,2,2-trifluoroacetate]
29 | 10 to 100 | COc1cc(Nc2nc3n(n2)CCCCC3c2ccc(F)cc2)ccc1-n1cnc(C)n1 (stereo not shown) [Example 7, 9-(4-fluorophenyl)-N-(3-methoxy-4-(3-methyl-1H-1,2,4-triazol-1-yl)phenyl)-6,7,8,9-tetrahydro-5H-[1,2,4]triazolo[1,5-a]azepin-2-amine 2,2,2-trifluoroacetate]
30 | < 10 | COc1cc(Nc2nc3n(n2)CCCCC3c2ccc(F)c(F)c2)ccc1-n1cnc(Cl)c1 (stereo not shown) [Example 22, N-(4-(4-chloro-1H-imidazol-1-yl)-3-methoxyphenyl)-9-(3,4-difluorophenyl)-6,7,8,9-tetrahydro-5H-[1,2,4]triazolo[1,5-a]azepin-2-amine 2,2,2-trifluoroacetate]
31 | < 10 | COc1cc(Nc2nc3n(n2)CCCCC3c2cccc(F)c2)ccc1-n1cnc(Cl)c1 (stereo not shown) [Example 44, N-(4-(4-chloro-1H-imidazol-1-yl)-3-methoxyphenyl)-9-(3-fluorophenyl)-6,7,8,9-tetrahydro-5H-[1,2,4]triazolo[1,5-a]azepin-2-amine]
